Data from the METLIN SMRT retention time set (Domingo-Almenara et al. 2019).

Assay: gradient 5% acetonitrile 3 min, to 50% in 2 min, to 85% in 15 min, held 3 min, 100 µL/min
Conditions: column: Zorbax Extend-C18 2.1 x 50 mm; eluents: water / acetonitrile, 0.1% formic acid
Method in brief: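 The system's dead and dwell volumes were 40 μL and 900 μL, with a Zorbax Extend-C18 column (2.1 × 50 mm, 1.8 μm) run at 100 μL/min in water and acetonitrile containing 0.1% formic acid each. Pure standards were analyzed in mixtures of ~100 molecules by HPLC–quadrupole time-of-flight mass spectrometry in positive and negative ionization mode. Retention time was assigned from computationally picked, manually inspected adduct peaks.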

| Structure (SMILES) | RP-LC retention time |
| --- | --- |
| COc1ccc(C(O)CN2CCN(C3CCCCC3)CC2)cc1 (stereo not drawn) | 540 s |
| Cc1cccc(NC(=O)C2C(=O)NC3(C)CC2c2ccccc2O3)c1 (stereo not drawn) | 920 s |
| Cn1nccc1-c1cccc(-c2noc(Cc3ccccc3F)n2)c1 | 1050 s |
| COc1ccccc1-c1noc(C2CCCN2C(=O)c2cccc(F)c2)n1 (stereo not drawn) | 856 s |
| CCN1CCN(CCNC(=O)C2CCN(c3nccnc3Sc3ccc(C)cc3)CC2)CC1 | 639 s |
| CCCN(C)C(=O)c1ccc2nc(-c3ccccc3)cn2c1 | 618 s |
| COc1ccccc1NC(=O)C1CCN(C(=O)C2Sc3ccccc3NC2=O)CC1 (stereo not drawn) | 753 s |
| CCc1nc2c(NC(=O)c3cc(F)cc(F)c3)cccn2n1 | 851 s |
| CCc1cc(=O)n(CC(=O)Nc2ccc3c(c2)OCO3)c(-c2cccc(F)c2)n1 | 1100 s |
| COc1cc(-c2ccnc3nc(Cc4ccc(F)cc4)nn23)cc(OC)c1OC | 695 s |
| CC(=O)c1cccc(NC(=O)c2cc(-c3cccnc3)nc3ccccc23)c1 | 739 s |
| Cc1cc(=O)n(CC(=O)Nc2ccccc2F)c(-c2ccccc2)n1 | 1000 s |
| CCN(CC)S(=O)(=O)N1CCC(C(=O)Nc2cccc(CCc3nc4ccc(C)cc4[nH]3)c2)CC1 | 708 s |
| COc1cccc(CC(=O)N2CCC3(CC2)NC(=O)c2cc(F)ccc2N3C)c1 | 758 s |
| CCCN1C(=O)CCc2cc(NS(=O)(=O)c3ccc(C(F)(F)F)cc3)ccc21 | 914 s |
| CCc1ccc(NC(=O)C2CCN(C(=O)c3ncn4c3COC(c3ccccc3)C4)CC2)cc1 (stereo not drawn) | 846 s |
| CCCCN1C(=O)C(C)(C(=O)Nc2ccc(OCC)cc2)Oc2cccnc21 (stereo not drawn) | 1060 s |
| CCn1ncc(NC(=O)c2ccccc2OC)c(N2CCOCC2)c1=O | 829 s |
| CCn1nc(C)c(CCNC(=O)c2ccc3nc(Cc4ccccc4)oc3c2)c1C | 720 s |
| N#Cc1ccc(NS(=O)(=O)c2c[nH]c3ncccc23)cc1 | 686 s |
| COCCCNC(=O)N1CCN(Cc2nc3cccnc3n2-c2cc(C)cc(C)c2)CC1 | 650 s |
| COc1ccc(C(=O)N2c3ccccc3NC3=C(C(=O)CCC3)C2c2ccco2)cc1 (stereo not drawn) | 762 s |

| Structure (SMILES) | RP-LC retention time |
| --- | --- |
| O=C(c1cccc(C(F)(F)F)c1)N1CCN(c2nc(CN3CCOCC3)cs2)CC1 | 644 s |
| COc1ccc2[nH]c(C(=O)N3CCN(C(=O)c4ccc(Br)o4)CC3)cc2c1 | 784 s |
| O=C([C@@H]1C[C@H](F)CN1C(=O)c1ccccc1Cl)N1CCOCC1 | 619 s |
| O=C(Cc1ccccc1)Nc1c(-c2ccccc2)nc2ccccn12 | 574 s |
| O=C(NCc1cc(F)cc(F)c1)c1ccnc(N2CCNC(c3ccccc3)C2)c1 (stereo not drawn) | 661 s |
| Cc1ccc(Cn2c(=O)c3nn(C)cc3n3c(=O)n(Cc4ccc(N5CCCC5=O)cc4)nc23)cc1 | 812 s |
| COc1cccc2c(C)nc(NC3=NCN(Cc4cccnc4)CN3)nc12 | 567 s |
| CC(=O)c1cccc(NC(=O)N2CCN(c3cnn4c(C)nnc4c3)CC2)c1 | 600 s |
| CCOc1ccc(N2CC(c3nnc(NC(=O)CCc4ccccc4)o3)CC2=O)cc1 (stereo not drawn) | 726 s |
| O=c1[nH]c2ccccc2c2ccccc12 | 806 s |
| C[C@H]([C@H](C)N1CC(=O)NC(=O)C1)N1CC(=O)NC(=O)C1 | 610 s |
| Cc1c(Cl)cccc1Nc1c(-c2ccc(Cl)cc2)nc2cnccn12 | 1120 s |
| CCOC(=O)c1[nH]c(C)c(CCC(=O)N2CCC(C(=O)NCc3cccc(OC)c3)CC2)c1C | 773 s |
| Cc1cccc(C(=O)Nc2ccc3c(c2)Sc2ncccc2C(=O)N3C)c1 | 809 s |
| CCc1cccc(NC(=O)C2CCN(S(=O)(=O)c3cn(C(C)C)cn3)CC2)c1 | 840 s |
| O=C(NCC1(N2CCOCC2)CCOC1)Nc1ccc2c(c1)OCCO2 (stereo not drawn) | 589 s |
| CCN1CCCc2cc(C(=O)N3CCC4(CC3)OCCO4)sc21 | 603 s |
| O=C(CC1CCCCC1)N1CCN(c2nc(CN3CCCCC3)cs2)CC1 | 675 s |
| Cc1ccccc1OCC(=O)N1CCN(c2nc(CN3CCCCC3)cs2)CC1 | 895 s |
| O=C(CN1C(=O)C(C(=O)N2CCCC2)Sc2ccccc21)N1CCN(c2ccccc2F)CC1 (stereo not drawn) | 859 s |
| CCOc1cc(C(=O)N2CCCC(C)(C(=O)NCc3ccc(F)cc3)C2)cc(OCC)c1OCC (stereo not drawn) | 978 s |
| c1cnc(N2CCN(c3nn4nnnc4c4ccccc34)CC2)nc1 | 807 s |

| Structure (SMILES) | RP-LC retention time |
| --- | --- |
| COCc1noc([C@@H]2CN(Cc3cn(C)c4ccccc34)C[C@H]2CO)n1 | 616 s |
| COc1ccc(Cl)cc1NS(=O)(=O)c1cc(-c2c(C)noc2NC(C)=O)ccc1OC | 823 s |
| O=C(Nc1ccc(Cl)cc1)N1CCc2nc(-c3ccc(Cl)cc3)ncc2C1 | 1130 s |
| Cc1ccc(C)c(C2=NC3(CCN(C(C)C)CC3)NC(c3cc(Cl)ccc3O)C2)c1 (stereo not drawn) | 679 s |
| COc1ccc(CCc2nc3nccc(-c4ccccn4)n3n2)cc1OC | 752 s |
| CC(C)c1noc(-c2cc(=O)n(CC(=O)Nc3ccc(Cl)cc3F)c3ccccc23)n1 | 1100 s |
| CC(C)COc1cc(=O)n2c(c1C(=O)NCCCn1cccn1)CCCCC2 | 659 s |
| O=C(CCNc1c(-c2ccccc2)nc2cnccn12)NCc1cccs1 | 662 s |
| CSc1ccc(-c2nc3ccc(C)cn3c2NC2CCCCC2)cc1 | 878 s |
| CCN1C(=O)c2cccnc2Sc2cc(CNC(=O)Cc3ccc(F)cc3)ccc21 | 761 s |
| CCc1ccc(-n2nc(N3CCCC(C(=O)NCc4ccc(OC)cc4OC)C3)ccc2=O)cc1 (stereo not drawn) | 872 s |
| O=C(c1ccc(OC(F)(F)F)cc1)N1CCN(c2cc(-c3ccc(Cl)cc3)[nH]n2)CC1 | 991 s |
| O=C(C1CCC1)N1CCC(n2cnnc2C2CC2)CC1 | 598 s |
| Cc1sc(-c2nnc(C3CCC3)o2)cc1NC(=O)c1ccc(C#N)cc1 | 965 s |
| Cc1cccc(N2CCN(c3cc(-c4ccccc4)nc4c(-c5ccccc5)cnn34)CC2)n1 | 1010 s |
| COC(=O)c1cccc(NC(=O)CSc2cc(N3CCN(c4ccc(OC)cc4)CC3)ncn2)c1 | 905 s |
| COc1ccc(CC(=O)N2CCc3cc(-c4ccno4)ccc32)cc1 | 909 s |
| COc1ccc(NC(=O)C2=C(C)C(=O)OC23CCCCCC3)cc1OC | 887 s |
| Cc1ccc(Cn2c(=O)n(CCNC(=O)c3cccn3C)c3ncccc32)cc1 | 822 s |
| COc1cccc(-c2noc(CN3C(=O)COc4cc(Cl)ccc43)n2)c1OC | 1020 s |
| CC1CCCCN1CCCNC(=O)CN1C(=O)CCn2nc(-c3cn(C)c4ccccc34)cc21 (stereo not drawn) | 564 s |
| CCn1cc(CCNC(=O)c2ccccc2OC)c2cccnc21 | 716 s |

| Structure (SMILES) | RP-LC retention time |
| --- | --- |
| O=C(Cn1cccc1-c1nnc(-c2ccccc2)o1)NCCc1ccccc1 | 950 s |
| Cc1c(C(=O)N2CCCCC2C)sc2ncn(CC(=O)N3CC(C)CC(C)C3)c(=O)c12 (stereo not drawn) | 846 s |
| CCNC(=O)c1cc2cc(Br)ccc2[nH]1 | 828 s |
| Cc1cc(C(=O)NC2CC2)c2cc(Br)ccc2n1 | 664 s |
| CN(C)CCCn1cc2c(c1-c1cccc(Br)c1)c(=O)n(C)c(=O)n2C | 617 s |
| Cc1ccc(C(=O)N2CCC(C)CC2)cc1[N+](=O)[O-] | 830 s |
| Cc1ccc(NC(=O)CN2CCc3[nH]c4c(C)ccc(F)c4c(=O)c3C2)cc1F | 638 s |
| O=C(Cn1nc(S(=O)(=O)c2ccc(Cl)cc2)ccc1=O)N1CCN(c2ccccc2F)CC1 | 937 s |
| Cc1ccc(NC(=O)N2C[C@@H](F)C[C@H]2C(=O)N2CCc3ccccc3C2)c(C)c1 | 817 s |
| COc1ccc(NC(=O)NCCCn2c(C(F)(F)F)nc3cccnc32)cc1OC | 708 s |
| Clc1ccc(N2CCN(Cc3cc4ccccn4n3)CC2)cc1 | 754 s |
| O=C(NCc1nc(-c2ccc(N3CCCC3)cc2)no1)c1cccs1 | 962 s |
| Cc1ccnc(NC(=O)NCCCSc2nnc(-c3ccccc3)o2)n1 | 727 s |
| COc1ccc(C)cc1NC(=O)C1CCCN(S(=O)(=O)c2c[nH]c(C(=O)N3CCCC3)c2)C1 (stereo not drawn) | 824 s |
| O=C(NCc1csc(C2CCN(C(=O)c3ccc(F)c(F)c3)CC2)n1)C1CCC1 | 742 s |
| CCN1CCN(c2ncc(N3CCC(C(=O)NCc4cccs4)CC3)cn2)CC1 | 603 s |
| CN(C)c1nc(C(=O)N2CCN(c3ccc(F)cc3)CC2)nc2c1cnn2C | 739 s |
| CN1CCN(CCNC(=O)C2CCc3sc(C(=O)N4CCOCC4)cc3C2)CC1 (stereo not drawn) | 543 s |
| COc1ccccc1CC(=O)Nc1cccn2c(C)nnc12 | 678 s |
| O=C(Nc1ccc(Cl)cc1C(F)(F)F)N1CCC(n2cnnc2C2CC2)C1 (stereo not drawn) | 704 s |
| COc1cccc2c1OC1(C)CC2C(S(=O)(=O)c2ccc(C(C)C)cc2)C(=O)N1C (stereo not drawn) | 1040 s |
| Cc1cc(C(=O)NCCc2ccc(Cl)cc2)c2c(=O)n(C)c(=O)n(C)c2n1 | 835 s |
